The subject of test [1] is K562 (chronic myelogenous leukaemia). The test can be described thus: Effect of compounds on tumor cell lines (assay of Latham et al.), K562. It is filed as cell-based. The settings on record: K562 cells, 96 hours after treatment, 1 μM to 100 μM; read-out: K 562 potency (IC50). Put shortly: (§1)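 K562 or DU145 cells plated at 2.5×10^4 cells/well, treated 24 h later with compound in DMSO at 1 μM to 100 μM (0.1 μM to 100 μM for one compound). Activity judged by microscopic observation after 96 h; where needed, viable cells counted by trypan blue exclusion.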

The subject of another test is DU145 (prostate cancer). The test can be described thus: Effect of compounds on tumor cell lines (assay of Latham et al.), DU145. It is filed as cell-based. The settings on record: DU145 cells, 96 hours after treatment, 1 μM to 100 μM; read-out: DU 145 potency (IC50). Put shortly:
as §1

The structures appear in SMILES notation. A value given as a limit tells only on which side of the number the result lay.

Consider `CCOC(=O)c1c(C)[nH]c(/C=C(/SCc2ccc(Br)cc2)C(=O)c2ccc(Br)cc2)c1C` [Example 170], for which the figures for the half-maximal inhibitory concentration (IC50) (in test [1]; in the test on DU145 (prostate cancer)) were 25 to 50 µM and 50 to 100 µM, respectively.

`O=C(O)c1ccc(C(=O)/C(=C\c2ccc(F)c([N+](=O)[O-])c2)SCc2ccc(Br)cc2)cc1` [Example 172]: the 50% inhibitory concentration (IC50) (in test [1]; in the test on DU145 (prostate cancer)) was 1 to 10 µM in each case.

As for `O=C(/C(=C\c1cc(I)c(O)c(I)c1)SCc1ccc(Br)cc1)c1ccc(Br)cc1` [Example 173], the IC50 (in test [1]; with DU145 (prostate cancer)) was 1 to 10 µM each time.

Take `COc1cc(/C=C(/SCc2ccc(Br)cc2)C(=O)c2ccc(Br)cc2)cc([N+](=O)[O-])c1O` [Example 174]: the IC50 (in test [1]; in the test with DU145 (prostate cancer)) was 25 to 50 µM in each case.

As to `O=C(/C(=C\c1ccc(O)c([N+](=O)[O-])c1)SCc1ccc(Br)cc1)c1c(F)c(F)c(F)c(F)c1F` [Example 175], the IC50 (in test [1]; with DU145 (prostate cancer)) was 10 to 25 µM in each case.

Consider `O=C(/C(=C\c1ccc(O)c([N+](=O)[O-])c1)SCc1ccc(Br)cc1)c1ccc(Cl)cc1Cl` [Example 176], for which the values for the IC50 (in test [1]; in the test with DU145 (prostate cancer)) were 1 to 10 µM and 10 to 25 µM, respectively.

Regarding `O=C(/C(=C\c1ccc(O)c([N+](=O)[O-])c1)SCc1ccc(Br)cc1)c1ccc(O)cc1O` [Example 177], the IC50 in test [1] is 50 to 100 µM; with DU145 (prostate cancer) it was > 100 µM.

As for `COc1cc(C(=O)/C(=C\c2ccc(O)c([N+](=O)[O-])c2)SCc2ccc(Br)cc2)cc(OC)c1OC` [Example 178], the IC50 (in test [1]; in the test with DU145 (prostate cancer)) was 1 to 10 µM each time.

As for `O=C(/C(=C\c1ccc(O)c([N+](=O)[O-])c1)SCc1ccc(Br)cc1)c1ccc([N+](=O)[O-])c(Cl)c1` [Example 179], the IC50 (in test [1]; in the test with DU145 (prostate cancer)) was 1 to 10 µM each time.

Turning to `O=C(O)c1ccc(C(=O)/C(=C\c2ccc(O)c([N+](=O)[O-])c2)SCc2ccc(Br)cc2)cc1` [Example 181], the IC50 (in test [1]; in the test on DU145 (prostate cancer)) was 50 to 100 µM in each case.

Regarding `N#Cc1ccc(C(=O)/C(=C\c2ccc(O)c([N+](=O)[O-])c2)SCc2ccc(Br)cc2)cc1` [Example 182], the IC50 (in test [1]; with DU145 (prostate cancer)) was 10 to 25 µM each time.

Turning to `COc1ccc(C(=O)/C(=C\c2ccc(O)c([N+](=O)[O-])c2)SCc2ccc(Br)cc2)cc1` [Example 183], the IC50 (in test [1]; with DU145 (prostate cancer)) was 10 to 25 µM in each case.

As for `O=C(/C(=C\c1ccc(O)c([N+](=O)[O-])c1)SCc1ccc(Br)cc1)c1ccc([N+](=O)[O-])cc1` [Example 184], the IC50 (in test [1]; with DU145 (prostate cancer)) was 10 to 25 µM throughout.

`O=C(/C(=C\c1ccc(O)c([N+](=O)[O-])c1)SCc1ccc(Br)cc1)c1ccc(N2CCCC2)cc1` [Example 185]: the IC50 (in test [1]; in the test with DU145 (prostate cancer)) was > 100 µM throughout.

For the molecule `O=C(/C(=C\c1ccc(O)c([N+](=O)[O-])c1)SCc1ccc(Br)cc1)c1ccc(C(F)(F)F)cc1` [Example 186], the concentration for half-maximal inhibition (IC50) in test [1] was in the range of 1 to 10 µM; in the test on DU145 (prostate cancer), 10 to 25 µM.

As to `O=C(/C(=C\c1ccc(O)c([N+](=O)[O-])c1)SCc1ccc(Br)cc1)c1cc(Cl)ccc1O` [Example 187], the 50% inhibitory concentration (IC50) in test [1] was 10 to 25 µM; in the test with DU145 (prostate cancer) it was 25 to 50 µM.

For the molecule `CSc1ccc(/C=C(/SCc2ccc(Br)cc2)C(=O)c2ccc(C(=O)O)cc2)cc1` [Example 188], the IC50 (in test [1]; with DU145 (prostate cancer)) was 25 to 50 µM throughout.

Turning to `O=C(/C(=C\c1cccc(Cl)c1Cl)SCc1ccc(Cl)cc1)c1ccc(Br)cc1` [Example 190], the IC50 (in test [1]; in the test on DU145 (prostate cancer)) was 10 to 25 µM in each case.

Take `O=C(C(=Cc1cccc(Cl)c1Cl)SCc1ccc(Cl)cc1)c1ccc(Cl)cc1` [Example 191]: the IC50 was in the range of 1 to 10 µM in test [1] and 10 to 25 µM in the test with DU145 (prostate cancer).

Turning to `O=C(C(=Cc1c(O)cc(O)cc1O)SCc1ccc(Cl)cc1)c1ccc(Cl)cc1` [Example 192], the IC50 (in test [1]; with DU145 (prostate cancer)) was > 100 µM each time.

Regarding `COc1cc(OC)c(C=C(SCc2ccc(Cl)cc2)C(=O)c2ccc(Br)cc2)c(OC)c1` [Example 193], the results for the IC50 (in test [1]; with DU145 (prostate cancer)) were 10 to 25 µM and 1 to 10 µM, respectively.
